In patent US9284303B2, “Benzimidazole cannabinoid agonists bearing a substituted heterocyclic group” (priority 2006, dated 2016):
Like-named read-outs stand apart in the source and are kept apart here.

Experiments:
[1] = target: T1, human CB1 (hCB1) receptor (Homo sapiens, UniProt P21554); experiment: Inhibition of forskolin-activated cAMP production upon activation of hCB1 (HTRF), CHO-K1 cells; format: cell-based; details: CB1 pEC50, hCB1-CHO-K1 cells, forskolin-activated cAMP, pEC50=-log(EC50)
T1 construct: expressed in transfected cells; host or cells: CHO-K1
Experimental: (§1) Functional activity of the test compounds was assessed by measuring their potency to inhibit forskolin-activated cAMP production upon activation of the human CB1 (hCB1) or human CB2 (hCB2) receptor through homogenous time resolved fluorescence (HTRF) assays.
CHO-K1 cells stably transfected with either hCB1 or hCB2 were grown up to 80-90% confluence in T175 Falcon flasks in DMEM/NUT MIX F-12 culture medium complemented with 2% Solution A (5.10^6 IU/l penicillin G, 5 g/l streptomycin sulphate, 5.5 g/l pyruvate, 14.6 g/l L-glutamine, 1M NaOH) and 10% foetal calf serum. Before the experiments, medium was removed, cells were washed with PBS/EDTA (140 mM NaCl, 1 mM Naz-EDTA, 8 mM Na2HPO4.2H2O, 8.5 mM KH2PO4, 2.7 mM KCl, 21 mM glucose), resuspended in stimulation buffer (HBSS 1x, IBMX 1 mM, Hepes 5 mM, MgCl2 10 mM, BSA 0.1%, pH 7.4). Cells were diluted to a concentration of 8.10^5 cell/ml for hCB1 experiments and 10^6 cells/ml for hCB2 experiments. Assays were performed using the cAMP Dynamic HTRF kit (CIS bio international, France) according to the recommendations of the manufacturer.
For CB1, each well of a 96 flat bottom black polystyrene assay plate (Costar) was filled with 25 μl stimulation buffer containing 6 μM forskolin and either test compound (in 2% DMSO), 2% DMSO or 2 μM CP55490 (in 2% DMSO). Then, 25 μl of the diluted cells was added (20,000 cells/well). After 30 minutes incubation in dark at room temperature, 25 μl cAMP-XL665 and 25 μl anti-cAMP cryptate (both at a final dilution of 1/80) was added to the cells.
After equilibration of the reaction mixtures for 1 to 24 hours in dark at room temperature, fluorescence was measured at 665 nm and 620 nm using a Discovery microplate fluorescence counter (Perkin Elmer), and the signal ratio of 665 nm/620 nm was calculated. The signal ratios of the test compounds were expressed relative to the signal ratios of the DMSO control (maximal signal ratio, no inhibition of cAMP) and CP55490 or WIN55212-2 for hCB1 and hCB2, respectively (minimal signal ratio, maximal inhibition of cAMP). From the dose response curves generated for each test compound, the dose at which 50% of the maximal inhibition of cAMP level is observed (EC50, expressed in the Tables as pEC50=−log(EC50) values) and the level of inhibition reached with 10 μM of the test compound compared to CP55490 (for hCB1) or WIN55212-2 (for hCB2) was calculated.

[2] = target: T2, human CB2 (hCB2) receptor (Homo sapiens, UniProt P34972); experiment: Inhibition of forskolin-activated cAMP production upon activation of hCB2 (HTRF), CHO-K1 cells; format: cell-based; details: for ratio CB2 agonism over CB1 agonism: Table C-1, selectivity hCB2 over hCB1; for EC50: forskolin-activated cAMP, pEC50=-log(EC50); for ratio CB2 over CB1 agonism: Table C-3, comparison of art compounds A to E with compounds of the invention
T2 construct: expressed in transfected cells; host or cells: CHO-K1
Experimental: as §1
Before the experiments, medium was removed, cells were washed with PBS/EDTA (140 mM NaCl, 1 mM Naz-EDTA, 8 mM Na2HPO4.2H2O, 8.5 mM KH2PO4, 2.7 mM KCl, 21 mM glucose), resuspended in stimulation buffer (HBSS 1x, IBMX 1 mM, Hepes 5 mM, MgCl2 10 mM, BSA 0.1%, pH 7.4). Cells were diluted to a concentration of 8.10^5 cell/ml for hCB1 experiments and 10^6 cells/ml for hCB2 experiments. Assays were performed using the cAMP Dynamic HTRF kit (CIS bio international, France) according to the recommendations of the manufacturer.
Then, 20 μl of the diluted hCB2-CHO-K1 cells was added (20,000 cells/well). After 30 minutes incubation in dark at room temperature, 10 μl cAMP-XL665 and 10 μl anti-cAMP cryptate (both at a final dilution of 1/100) was added to the cells.

[3] = hCB2-CHO-K1 cells, read-out: CB2 pEC50 (converted)

T1 sequence (P21554 whole entry): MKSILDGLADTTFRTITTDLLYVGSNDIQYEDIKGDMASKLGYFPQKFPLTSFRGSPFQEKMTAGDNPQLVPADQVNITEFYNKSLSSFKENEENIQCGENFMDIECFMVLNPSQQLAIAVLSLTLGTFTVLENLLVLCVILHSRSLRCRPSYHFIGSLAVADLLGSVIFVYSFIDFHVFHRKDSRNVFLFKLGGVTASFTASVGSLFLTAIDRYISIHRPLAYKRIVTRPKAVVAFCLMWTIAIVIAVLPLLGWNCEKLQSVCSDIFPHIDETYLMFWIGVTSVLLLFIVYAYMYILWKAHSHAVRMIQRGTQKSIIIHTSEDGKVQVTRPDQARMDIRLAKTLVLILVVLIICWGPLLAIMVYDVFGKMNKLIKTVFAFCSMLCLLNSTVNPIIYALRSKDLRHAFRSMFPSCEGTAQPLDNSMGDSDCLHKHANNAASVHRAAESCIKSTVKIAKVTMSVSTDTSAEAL
T2 sequence (P34972 whole entry): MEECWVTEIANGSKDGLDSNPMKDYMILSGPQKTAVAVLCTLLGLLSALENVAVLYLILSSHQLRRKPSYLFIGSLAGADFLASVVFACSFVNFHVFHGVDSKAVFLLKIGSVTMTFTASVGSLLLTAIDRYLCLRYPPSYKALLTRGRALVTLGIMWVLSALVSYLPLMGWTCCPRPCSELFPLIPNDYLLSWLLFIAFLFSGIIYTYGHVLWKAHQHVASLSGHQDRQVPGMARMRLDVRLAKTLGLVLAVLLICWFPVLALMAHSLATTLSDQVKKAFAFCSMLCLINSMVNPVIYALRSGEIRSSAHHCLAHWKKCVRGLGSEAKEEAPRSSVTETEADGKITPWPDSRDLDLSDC

SMILES	melting point	EC50 [1]	ratio CB2 agonism over CB1 agonism [2]	EC50 [2, 3]	ratio CB2 over CB1 agonism [2]	ratio CB2 agonism over CB1 agonism ([2]; listed as 52)	EC50 ([2]; CB2 pEC50, hCB2-CHO-K1 cells)	ratio CB2 agonism over CB1 agonism ([2]; listed as 17)
CC(C)(C)c1nc2cc(S(=O)(=O)c3ccn(/C(F)=C/I)c(=O)c3)ccc2n1CC1CCOCC1 [Co. No. 90]	113.9 °C	> 10000 nM	>3715	2.69 nM				
COC(C)c1ccc(S(=O)(=O)c2ccc3c(c2)nc(C(C)(C)C)n3CC2CCOCC2)nc1 (stereo not drawn) [Co. No. 49]	140 °C	> 10000 nM	>2138	4.68 nM				
CC(=O)c1ccc(S(=O)(=O)c2ccc3c(c2)nc(C(C)(C)C)n3CC2CCOCC2)nc1 [Co. No. 4]	> 120 °C	3240 nM	1679	1.91 nM	1679			
CC(C)(C)c1nc2cc(S(=O)(=O)c3cc[n+]([O-])cc3Br)ccc2n1CC1CCOCC1 [Co. No. 87]	205.3 °C	2290 nM		2.14 nM				
CC(C)(C)CCn1c(C(C)(C)C)nc2cc(S(=O)(=O)c3ccnc(F)c3)ccc21 [Co. No. 120]	131.5 °C	> 10000 nM	>4365	2.29 nM				
Cc1cc(S(=O)(=O)c2ccc3c(c2)nc(CC(C)(C)C)n3CC2CCOCC2)cc[n+]1[O-] [Co. No. 102]	231.7 °C	9120 nM		5.01 nM				
COc1ccc(S(=O)(=O)c2ccc3c(c2)nc(C(C)(C)C)n3CC2CCOCC2)cn1 [Co. No. 52]	198 °C	229 nM		0.692 nM		331		
CC(O)c1ccc(S(=O)(=O)c2ccc3c(c2)nc(C(C)(C)C)n3CC2CCOCC2)nc1 (stereo not drawn) [Co. No. 42]	177 to 179 °C			3.98 nM			0.631 nM	
COc1ccc(S(=O)(=O)c2ccc3c(c2)nc(C(C)(C)C#N)n3CC2CCOCC2)nn1 [Co. No. 92]	161.1 °C	2950 nM	437	6.92 nM				
CC(C)(C)c1nc2cc(S(=O)(=O)c3ccc(C(N)=O)o3)ccc2n1CC1CCOCC1 [Co. No. 12]	234.8 °C	468 nM	302	1.55 nM	302			
CC(C)(C)c1nc2cc(S(=O)(=O)c3ccn(/C(F)=C\I)c(=O)c3)ccc2n1CC1CCOCC1 [Co. No. 91]	164.4 °C		1995	5.01 nM				
CC(C)(C)c1nc2cc(S(=O)(=O)c3ccnc(C#N)c3)ccc2n1CC1CCOCC1 [Co. No. 17]	201.2 °C	9330 nM		1.58 nM	5821			5821
CC(C)(C)c1nc2cc(S(=O)(=O)c3ccc(S(=O)(=O)N4CCOCC4)cn3)ccc2n1CC1CCOCC1 [Co. No. 66]	224 °C	> 10000 nM	>676	14.8 nM				
CC(C)(C)Cn1c(C(C)(C)C)nc2cc(S(=O)(=O)c3ccnc(F)c3)ccc21 [Co. No. 127]	135.4 °C	> 10000 nM	6026				1.66 nM	
CC(C)(C)c1nc2cc(S(=O)(=O)c3ccc(C(=O)N4CCOCC4)s3)ccc2n1CC1CCOCC1 [Co. No. 79]	184.6 °C	1580 nM	543	2.95 nM				
CC(C)(C)Cc1nc2cc(S(=O)(=O)c3cc[n+]([O-])cc3)ccc2n1CC1CCOCC1 [Co. No. 103]	259.7 °C	2090 nM		7.08 nM				

SMILES	melting point	EC50 [1]	ratio CB2 agonism over CB1 agonism [2]	EC50 [2, 3]	ratio CB2 over CB1 agonism [2]	ratio CB2 agonism over CB1 agonism ([2]; listed as 52)	EC50 ([2]; CB2 pEC50, hCB2-CHO-K1 cells)	ratio CB2 agonism over CB1 agonism ([2]; listed as 17)
CC(C)(C)c1nc2cc([S+]([O-])c3c(Cl)cncc3Cl)ccc2n1CC1CCOCC1 (stereo not drawn) [Co. No. 85]	192.9 °C	832 nM	891	0.933 nM				
CC(C)(C)c1nc2cc(S(=O)(=O)c3nccc(C(N)=O)n3)ccc2n1CC1CCOCC1 [Co. No. 29]	220 to 222 °C	1320 nM	417	3.16 nM				
CCNS(=O)(=O)c1ccc(S(=O)(=O)c2ccc3c(c2)nc(C(C)(C)C)n3CC2CCOCC2)s1 [Co. No. 59]	158 °C	2290 nM	2018	1.12 nM				
CC(C)(C)c1nc2cc(S(=O)(=O)c3ccc(=O)[nH]n3)ccc2n1CC1CCOCC1 [Co. No. 94]	218.3 °C	2690 nM	1059	2.51 nM				
COC(=O)c1cc(S(=O)(=O)c2ccc3c(c2)nc(C(C)(C)C)n3CC2CCOCC2)c[nH]1 [Co. No. 75]	231 °C	9550 nM	2291	4.17 nM				
Cc1cc(S(=O)(=O)c2ccc3c(c2)nc(C(C)(C)C)n3CC2CCOCC2)cc[n+]1[O-] [Co. No. 89]	215.3 °C	> 10000 nM		11.2 nM				
Cc1nc(-c2csc(S(=O)(=O)c3ccc4c(c3)nc(C(C)(C)C)n4CC3CCOCC3)c2)no1 [Co. No. 5]	192 to 193 °C	257 nM	676	0.372 nM				
CO[C@H]1CC[C@@H](Cn2c(C(C)(C)C)nc3cc(S(=O)(=O)c4ccnc(F)c4)ccc32)CC1 [Co. No. 162]	133.5 °C	> 10000 nM	>27542	0.363 nM				
CCC(CC)Cn1c(C(C)(C)C)nc2cc(S(=O)(=O)c3ccnc(F)c3)ccc21 [Co. No. 147]	130.9 °C	> 10000 nM	>10471	0.955 nM				
CC(C)(C)c1nc2cc(S(=O)(=O)c3coc(C(F)(F)F)c3)ccc2n1CC1CCOCC1 [Co. No. 106]	168 to 169.5 °C	316 nM	432	0.724 nM				
CC(C)(C)c1nc2cc(S(=O)(=O)c3ncccc3C#N)ccc2n1CC1CCOCC1 [Co. No. 104]	100 to 105 °C	87.1 nM	117	0.741 nM				
CC(C)(C)c1nc2cc(S(=O)(=O)c3ccnc(N)c3)ccc2n1CC1CCOCC1 [Co. No. 19]	235.9 °C	724 nM	638	1.12 nM	638			
CC(C)(C)c1nc2cc(S(=O)(=O)c3ccc(C(C)(C)O)s3)ccc2n1CC1CCOCC1 [Co. No. 53]	258 °C	2240 nM	607	3.72 nM				
CC(C)(C)c1nc2cc(S(=O)(=O)c3ccc(C(F)(F)F)cn3)ccc2n1CC1CCOCC1 [Co. No. 99]	140.5 to 142.3 °C	933 nM	700	1.32 nM				
CC(C)(C)c1nc2cc(S(=O)(=O)c3cc[n+]([O-])cc3C(F)(F)F)ccc2n1CC1CCOCC1 [Co. No. 21]	205.8 °C			3.8 nM				
